Measurements published in PMC4648260 (Chembiochem : a European journal of chemical biology, 2015).

Tests used:
[1] = molecular target: T1, RhlR (Pseudomonas aeruginosa, UniProt P54292); type: cell-based; conditions: for EC50: read-out: EC50 (RhlR agonism), E. coli reporter, dose-response 100 nM – 1 mM; for RhlR-agonistic selectivity over LasR and QscR: criterion: at least 2.5-fold more active in RhlR agonism assays than in LasR and QscR agonism assays at 100 μM
[2] = molecular target: T1, RhlR; type: cell-based; conditions: E. coli reporter; for Inhibition (%) / % RhlR inhibition: compound at 100 μM in the presence of 10 μM BHL, untreated culture set to 100%, error ±10%, selected data reproduced from ref. [23]
[3] = molecular target: LasR (Pseudomonas aeruginosa, UniProt P25084); test: LasR antagonism; type: cell-based; conditions: compound at 100 μM against 2 nM OdDHL; untreated culture set to 100%; negative values indicate receptor agonism; error ±10%
Sequence of LasR (P25084 whole entry): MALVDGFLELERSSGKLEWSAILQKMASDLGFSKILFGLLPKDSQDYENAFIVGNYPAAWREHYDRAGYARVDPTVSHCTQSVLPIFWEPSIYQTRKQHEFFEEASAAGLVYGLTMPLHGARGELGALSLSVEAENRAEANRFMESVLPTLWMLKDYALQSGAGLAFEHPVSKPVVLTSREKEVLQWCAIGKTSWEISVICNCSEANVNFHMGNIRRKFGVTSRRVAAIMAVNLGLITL

[4] = molecular target: QscR (Pseudomonas aeruginosa, UniProt G3XD77); conditions: compound at 100 μM against 15 nM OdDHL; untreated culture set to 100%; error ±10%
[5] = molecular target: T1, RhlR; test: RhlR agonism, P. aeruginosa GFP reporter strain PAO-JP2/prhlI-LVAgfp; type: cell-based; conditions: compound at 100 μM in the presence of 100 nM OdDHL, 900 μM BHL set to 100% activation, error ±10%, selected data reproduced from ref. [23]
[6] = molecular target: T1, RhlR; test: RhlR antagonism; type: cell-based

T1 sequence (P54292 whole entry): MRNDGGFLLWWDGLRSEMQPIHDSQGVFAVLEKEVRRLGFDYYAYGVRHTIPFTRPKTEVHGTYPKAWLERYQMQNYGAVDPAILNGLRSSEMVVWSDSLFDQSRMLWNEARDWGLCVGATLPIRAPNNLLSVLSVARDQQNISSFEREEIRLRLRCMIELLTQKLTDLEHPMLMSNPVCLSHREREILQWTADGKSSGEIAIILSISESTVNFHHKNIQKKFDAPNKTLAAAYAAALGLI

For `CCCC(=O)N[C@H]1CCOC1=O` [BHL, N-butanoyl L-homoserine lactone, reference compound], the EC50 [1] was 11.1 µM.
In the case of `O=C(Cc1ccccc1)N[C@@H]1CCOC1=O` [Compound B4], the “Inhibition (%) / % RhlR inhibition” value [2] is reported as 66%, the “% LasR inhibition” value [3] is reported as 15% and the “% QscR inhibition” value [4] is reported as 37%.
`O=C(Cc1ccccc1)NC1CCOC1=O` (stereo not drawn) [Compound C1] was tested, and the “RhlR-agonistic selectivity over LasR and QscR” value (“RhlR-agonistic selectivity” for short) [1] was “displayed selectivity”, the EC50 [1] was 14.7 µM and the “% RhlR activation” value [5] was 53%.
With `O=C(Cc1ccc(F)cc1)NC1CCOC1=O` (stereo not drawn) [Compound C2] the “RhlR-agonistic selectivity” value [1] was “displayed selectivity”, the EC50 [1] was 9 µM and the “% RhlR activation” value [5] was 28%.
In the case of `O=C(Cc1cccc(F)c1)NC1CCOC1=O` (stereo not drawn) [Compound C3], the “RhlR-agonistic selectivity” value [1] is reported as “displayed selectivity” and the “% RhlR activation” value [5] is reported as 28%.
In the case of `O=C(Cc1ccccc1F)N[C@H]1CCOC1=O` [Compound C4], the “RhlR-agonistic selectivity” value [1] is reported as “displayed selectivity” and the “% RhlR activation” value [5] is reported as 24%.
In the case of `O=C(Cc1cccc(Cl)c1)NC1CCOC1=O` (stereo not drawn) [Compound C6], the “RhlR-agonistic selectivity” value [1] is reported as “displayed selectivity”, the EC50 [1] is reported as 5.5 µM and the “% RhlR activation” value [5] is reported as 26%.
With `O=C(Cc1ccc(I)cc1)N[C@H]1CCOC1=O` [Compound C10] the “Maximum RhlR inhibition” value ([2]; antagonism dose curves, highest concentrations tested) was “near complete RhlR inhibition”, the “Inhibition (%) / % RhlR inhibition” value [2] was 84% and the “% LasR inhibition” value [3] was 58%. The “% QscR inhibition” value [4] was −79%.
`O=C(Cc1ccccc1I)NC1CCOC1=O` (stereo not drawn) [Compound C12] was tested, and the “RhlR-agonistic selectivity” value [1] was “displayed selectivity” and the “% RhlR activation” value [5] was 11%.
For `CSc1cccc(CC(=O)N[C@H]2CCOC2=O)c1` [Compound E7], the EC50 [1] was 6.6 µM.
In the case of `O=C(Cc1ccc2ccccc2c1)NC1CCOC1=O` (stereo not drawn) [Compound E12], the “Inhibition (%) / % RhlR inhibition” value [2] is reported as 77%, the “% LasR inhibition” value [3] is reported as 81% and the “% QscR inhibition” value [4] is reported as 60%.
`O=C(COc1ccc(I)cc1)N[C@H]1CCOC1=O` [Compound E22] was tested, and the “Inhibition (%) / % RhlR inhibition” value [2] was 74%, the “% LasR inhibition” value [3] was −9% and the “fold reduction in potency, P. aeruginosa vs E. coli” value ([6]; IC50 67.2 μM in P. aeruginosa vs 17.3 μM in E. coli) was ~ 4 fold. The “% RhlR inhibition” value ([6]; P. aeruginosa reporter, compound at 100 μM against 30 μM BHL in the presence of 100 nM OdDHL, cells with 100 nM OdDHL alone set to 100% inhibition, error ±10%) was 92% and the “% QscR inhibition” value [4] was 18%.
`O=C(CCc1ccccc1)NC1CCOC1=O` (stereo not drawn) [Compound E30] was tested, and the EC50 [1] was 6.6 µM.
